A word on the MIC: it is the smallest concentration in the dilution series that meets the test's criterion for growth inhibition. A low value points to greater potency.

The structures appear in SMILES notation. In brackets after ≈: the same amount, converted by molar mass.

The record followed here is DBAASP.

Assay in all cases: ≥ marks a high value that may be exact or a test limit, other limits are often not marked, values filed in µg/mL are converted to µM
Assay [1] has as its system Staphylococcus aureus NCTC 12493.
In assay [2] the test system is Escherichia coli NCTC 10418.
Assay [3] concerns Staphylococcus aureus ATCC 43300.
In assay [4] the test system is Candida albicans NCYC 1467.
Assay [5] has as its system Staphylococcus aureus NCTC 10788.
The test system of assay [6] is Pseudomonas aeruginosa ATCC 27853.
Assay [7] concerns Staphylococcus aureus ATCC BAA-1556.
Assay [8] concerns Escherichia coli JW0013.
In assay [9] the test system is Staphylococcus aureus ATCC 29213.
Assay [10] deals with Enterococcus faecalis ATCC 29212.
Assay [11] deals with Salmonella enterica subsp. enterica serovar Pullorum C79-13.
For assay [12], the system named is Staphylococcus epidermidis ATCC 12228.
The test system of assay [13] is Bacillus subtilis CMCC 63501.
Assay [14] has as its system Salmonella enterica subsp. enterica serovar Typhimurium ATCC 14028.
The subject of assay [15] is Escherichia coli ATCC 25922.
Assay [16] relates to Escherichia coli UB1005.
The subject of assay [17] is Staphylococcus aureus ATCC 25923.

Regarding `CSCC[C@H](NC(=O)[C@H](CC(=O)O)NC(=O)[C@@H](NC(=O)[C@@H](NC(=O)[C@H](C)NC(=O)[C@H](CC(N)=O)NC(=O)[C@H](CC(C)C)NC(=O)[C@H](C)NC(=O)[C@H](C)NC(=O)[C@H](CCCCN)NC(=O)CNC(=O)[C@H](C)NC(=O)[C@H](C)NC(=O)[C@H](CCCCN)NC(=O)CNC(=O)[C@@H](NC(=O)[C@H](CC(N)=O)NC(=O)[C@H](CCCCN)NC(=O)[C@H](Cc1ccccc1)NC(=O)[C@H](CC(C)C)NC(=O)[C@H](CO)NC(=O)[C@H](CCCCN)NC(=O)[C@H](Cc1c[nH]c2ccccc12)NC(=O)[C@H](CC(C)C)NC(=O)CN)C(C)C)C(C)C)[C@@H](C)O)C(=O)N[C@H](C(=O)N[C@@H](CC(N)=O)C(=O)N[C@@H](CCC(N)=O)C(N)=O)C(C)C` [GLWKSLFKNVGKAAGKAALNAVTDMVNQ], the MIC turned out to be 21.8 µM (≈ 64 µg/mL) in assay [1]; 5.46 µM (≈ 16 µg/mL) in assay [2]; 10.9 µM (≈ 32 µg/mL) in assay [3]; 10.9 µM (≈ 32 µg/mL) in assay [4]; 5.46 µM (≈ 16 µg/mL) in [5]; 21.8 µM (≈ 64 µg/mL) in assay [6].
For the molecule `CC(C)C[C@H](NC(=O)[C@H](CC(C)C)NC(=O)[C@H](CC(C)C)NC(=O)[C@H](CC(C)C)NC(=O)[C@H](CC(C)C)NC(=O)[C@H](CC(C)C)NC(=O)[C@H](CC(C)C)NC(=O)[C@@H](N)CCCCN)C(=O)N[C@@H](CCCCN)C(N)=O` [KLLLLLLLK], in [7], the MIC was at least 100 µM.
`CC[C@H](C)[C@H](NC(=O)[C@H](CCCN=C(N)N)NC(=O)[C@@H](N)CCCCN)C(=O)N[C@@H](CCCN=C(N)N)C(=O)N1CCC[C@H]1C(=O)N[C@@H](CCCN=C(N)N)C(=O)N1CCC[C@H]1C(=O)N1CCC[C@H]1C(=O)N[C@@H](CCCN=C(N)N)C(=O)N[C@@H](CC(C)C)C(=O)N1CCC[C@H]1C(=O)N[C@@H](CCCN=C(N)N)C(=O)N1CCC[C@H]1C(=O)N[C@@H](CCCN=C(N)N)C(=O)N1CCC[C@H]1C(=O)N[C@@H](CCCN=C(N)N)C(=O)O` [KRIRPRPPRLPRPRPR] displayed an MIC in assay [8] of 0.3 µM (≈ 0.615 µg/mL).
In [7], `CC(C)C[C@H](NC(=O)[C@H](CC(C)C)NC(=O)[C@H](CC(C)C)NC(=O)[C@H](CCCCN)NC(=O)[C@H](CC(C)C)NC(=O)[C@H](CC(C)C)NC(=O)[C@H](CC(C)C)NC(=O)[C@H](CCCCN)NC(=O)[C@@H](N)CC(C)C)C(N)=O` [LKLLLKLLL] showed an MIC of at least 100 µM.
On the same count and under the same terms, as for `CC(C)C[C@H](NC(=O)[C@H](CCCCN)NC(=O)[C@H](CC(C)C)NC(=O)[C@H](CC(C)C)NC(=O)[C@H](CC(C)C)NC(=O)[C@H](CC(C)C)NC(=O)[C@H](CC(C)C)NC(=O)[C@@H](N)CC(C)C)C(=O)N[C@@H](CCCCN)C(N)=O` [LLLLLLKLK], the figure is at least 100 µM.
In assay [8], `CC[C@H](C)[C@H](NC(=O)[C@@H]1CCCN1C(=O)[C@H](CCCCN)NC(=O)[C@@H]1CCCN1C(=O)[C@@H]1CCCN1C(=O)[C@@H](NC(=O)[C@@H]1CCCN1C(=O)[C@H](CCCN=C(N)N)NC(=O)[C@@H]1CCCN1C(=O)[C@H](CC(C)C)NC(=O)[C@H](Cc1ccc(O)cc1)NC(=O)[C@H](CO)NC(=O)CNC(=O)[C@H](CCCCN)NC(=O)[C@H](CC(=O)O)NC(=O)[C@@H](N)C(C)C)[C@@H](C)O)C(=O)N[C@@H](Cc1ccc(O)cc1)C(=O)N[C@@H](CC(N)=O)C(=O)N[C@@H](CCCN=C(N)N)C(=O)N[C@@H](CC(N)=O)C(=O)O` [VDKGSYLPRPTPPKPIYNRN] registered an MIC of 0.3 µM (≈ 0.694 µg/mL).
The same measure, in the same setting: as for `CC[C@H](C)[C@H](NC(=O)[C@@H]1CCCN1C(=O)[C@H](CCCN=C(N)N)NC(=O)[C@@H]1CCCN1C(=O)[C@@H]1CCCN1C(=O)[C@@H](NC(=O)[C@@H]1CCCN1C(=O)[C@H](CCCN=C(N)N)NC(=O)[C@@H]1CCCN1C(=O)[C@H](CCCN=C(N)N)NC(=O)[C@H](Cc1ccc(O)cc1)NC(=O)[C@H](CO)NC(=O)CNC(=O)[C@H](CCCCN)NC(=O)[C@H](CC(=O)O)NC(=O)[C@@H](N)C(C)C)[C@@H](C)O)C(=O)N[C@@H](Cc1ccc(O)cc1)C(=O)N[C@@H](CC(N)=O)C(=O)N[C@@H](CCCN=C(N)N)C(=O)N[C@@H](CC(N)=O)C(=O)O` [VDKGSYRPRPTPPRPIYNRN], the figure is 0.3 µM (≈ 0.715 µg/mL); as for `CC[C@H](C)[C@H](NC(=O)[C@H](CCCN=C(N)N)NC(=O)[C@H](CCCN=C(N)N)NC(=O)[C@@H]1CCCN1C(=O)[C@@H]1CCCN1C(=O)[C@H](CCCN=C(N)N)NC(=O)[C@@H]1CCCN1C(=O)[C@H](CCSC)NC(=O)[C@@H]1CCCN1C(=O)[C@H](CC(C)C)NC(=O)[C@H](Cc1ccc(O)cc1)NC(=O)[C@@H]1CCCN1C(=O)[C@@H]1CCCN1C(=O)[C@H](CCCCN)NC(=O)[C@H](CC(=O)O)NC(=O)[C@@H](N)C(C)C)C(=O)N[C@@H](Cc1ccc(O)cc1)C(=O)N[C@@H](CC(N)=O)C(=O)N[C@@H](CCCN=C(N)N)C(N)=O` [VDKPPYLPMPRPPRRIYNR], 2.03 µM (≈ 4.8 µg/mL).
Still for that read-out and setting: the same measure for `CC[C@H](C)[C@H](NC(=O)[C@H](CCCN=C(N)N)NC(=O)[C@H](CCCN=C(N)N)NC(=O)[C@@H]1CCCN1C(=O)[C@@H]1CCCN1C(=O)[C@H](CCCN=C(N)N)NC(=O)[C@H](CCCN=C(N)N)NC(=O)[C@H](CCCN=C(N)N)NC(=O)[C@@H]1CCCN1C(=O)[C@H](CC(C)C)NC(=O)[C@H](CCCN=C(N)N)NC(=O)[C@@H]1CCCN1C(=O)[C@H](CCCN=C(N)N)NC(=O)[C@H](CCCCN)NC(=O)[C@H](CC(=O)O)NC(=O)[C@@H](N)C(C)C)C(=O)N[C@@H](Cc1ccc(O)cc1)C(=O)N[C@@H](CC(N)=O)C(=O)N[C@@H](CCCN=C(N)N)C(N)=O` [VDKRPRLPRRRPPRRIYNR]: 0.959 µM (≈ 2.4 µg/mL).
On to `C[C@H](NC(=O)[C@H](C)NC(=O)[C@H](CCCCN)NC(=O)[C@H](C)NC(=O)[C@H](C)NC(=O)[C@H](C)NC(=O)[C@H](CCCCN)NC(=O)[C@H](Cc1ccccc1)NC(=O)[C@@H](N)Cc1c[nH]c2ccccc12)C(=O)N[C@@H](C)C(=O)N[C@@H](CCCCN)C(=O)N[C@@H](Cc1ccccc1)C(=O)N[C@@H](Cc1c[nH]c2ccccc12)C(N)=O` [WFKAAAKAAAKFW], for which the minimum inhibitory concentration (MIC) is 8 µM (≈ 12 µg/mL) in assay [9]; 32 µM (≈ 47.8 µg/mL) in assay [10]; 8 µM (≈ 12 µg/mL) in assay [11]; 16 µM (≈ 23.9 µg/mL) in assay [12]; 8 µM (≈ 12 µg/mL) in assay [13]; 32 µM (≈ 47.8 µg/mL) in assay [14]. For the same molecule, the MIC turned out to be 4 µM (≈ 5.98 µg/mL) in assay [15], 4 µM (≈ 5.98 µg/mL) in assay [16] and 16 µM (≈ 23.9 µg/mL) in [6].
For `CC(C)C[C@H](NC(=O)[C@H](CC(C)C)NC(=O)[C@H](CCCCN)NC(=O)[C@H](CC(C)C)NC(=O)[C@H](CC(C)C)NC(=O)[C@@H](N)Cc1c[nH]c2ccccc12)C(N)=O` [WLLKLL], the MIC in [7] was at least 100 µM.
Take `CC(=O)N[C@@H](Cc1c[nH]c2ccccc12)C(=O)N[C@@H](CCCN=C(N)N)C(=O)N[C@@H](CCCCN)C(=O)N[C@@H](CC(C)C)C(=O)N[C@@H](Cc1c[nH]c2ccccc12)C(=O)N[C@@H](CCCN=C(N)N)C(=O)NCC(=O)NCC(=O)N[C@@H](CC(C)C)C(=O)N[C@@H](CCCCN)C(=O)N[C@@H](CCCN=C(N)N)C(=O)N[C@@H](Cc1c[nH]c2ccccc12)C(=O)N[C@@H](CC(C)C)C(=O)N[C@@H](CCCCN)C(N)=O` [WRKLWRGGLKRWLK]: the minimal inhibitory concentration (MIC) in [11] was found to be 2 µM (≈ 3.85 µg/mL); in assay [12], 16 µM (≈ 30.8 µg/mL); in assay [3], 4 µM (≈ 7.7 µg/mL); in assay [13], 8 µM (≈ 15.4 µg/mL); in assay [14] it was 8 µM (≈ 15.4 µg/mL); in [17], 8 µM (≈ 15.4 µg/mL). In addition, the MIC in assay [16] turned out to be 4 µM (≈ 7.7 µg/mL); in assay [6], 8 µM (≈ 15.4 µg/mL).
For the molecule `CC(C)C[C@H](NC(=O)[C@H](Cc1c[nH]c2ccccc12)NC(=O)[C@H](Cc1c[nH]c2ccccc12)NC(=O)[C@H](CC(C)C)NC(=O)[C@H](CCCN=C(N)N)NC(=O)[C@H](Cc1c[nH]c2ccccc12)NC(=O)[C@H](CC(C)C)NC(=O)[C@H](Cc1c[nH]c2ccccc12)NC(=O)[C@@H](N)Cc1c[nH]c2ccccc12)C(N)=O` [WWLWRLWWL], the MIC in assay [7] was found to be 3.12 µM (≈ 4.51 µg/mL).
